According to US20240246902A1, “PRODRUGS OF 6-DIAZO-5-OXO-L-NORLEUCINE” (THE JOHNS HOPKINS UNIVERSITY, priority 2021, published 2024):

Assays:
[1] = Metabolic stability in swine liver tissue homogenate; assay type: in vitro ADME; conditions: prodrug 20 μM, 37° C.
Method: (§1) The representative Compounds of the Disclosure were screened for metabolic stability in swine jejunum/liver tissue homogenates, following our previously reported methods (Zimmermann et al., J. Med. Chem., 61(9):3918-29 (2018); Tenora et al., J. Med. Chem., 62(7):3524-38 (2019)). In brief, freshly collected tissues were homogenized by probe sonication in 9× volume of 0.1 M potassium phosphate buffer over ice. Post homogenization, prodrugs were spiked at a concentration of 20 μM (in triplicate) and incubated in an orbital shaker at 37° C. for 60 min. Final concentration of DMSO in the incubations was 0.2% v/v. At each time point (0, 30, 60 min), 100 μL of sample was precipitated with 300 μL of methanol containing internal standard (IS; losartan: 0.5 μM). […] After centrifugation, 50 μL of supernatant was diluted with 50 μL of water, vortexed and submitted for analysis. Prodrug disappearance over time was measured using liquid chromatography tandem mass spectrometry (LC-MS/MS).
(§2) The processed supernatants were analyzed on a Thermo Scientific Vanquish UPLC system (equipped with Vanquish autosampler, pumps, and column compartment) hyphenated to TSQ Altis mass spectrometer (Thermo Fisher Scientific Inc., Waltham MA). […] The autosampler was operated at 4° C. […] Peak area ratios obtained from peak area counts of analyte and internal standard were used to measure the disappearance of prodrugs.

[2] = Efflux
[3] = Metabolic stability in swine jejunum (gut) tissue homogenate; assay type: in vitro ADME; conditions: prodrug 20 μM, 37° C.
Method: as §1, §2

SMILES | Liver stability (% remaining at 60 min) [1] | Efflux [2] | Gut Stability (% remaining at 60 min) [3]
CC(C)OC(=O)[C@H](CCC(=O)C=[N+]=[N-])NC(=O)C(Cl)Cl [Compound 5e, Isopropyl (S)-6-diazo-2-(2,2-dichloroacetamido)-5-oxohexanoate] | 0 ± 0% | – | –
CCOC(=O)[C@H](CCC(=O)C=[N+]=[N-])NC(C)=O [Compound 5k, Ethyl (S)-2-acetamido-6-diazo-5-oxohexanoate] | 83 ± 2% | 1 | –
C=CCOC(=O)[C@H](CCC(=O)C=[N+]=[N-])NC(C)=O [Compound 5l, Allyl (S)-2-acetamido-6-diazo-5-oxohexanoate] | 12 ± 0% | – | –
CCCC(=O)N[C@@H](Cc1c[nH]c2ccccc12)C(=O)N[C@@H](CCC(=O)C=[N+]=[N-])C(=O)OC(C)C [Compound 8a, Isopropyl (S)-2-((S)-2-butyramido-3-(1H-indol-3-yl)propanamido)-6-diazo-5-oxohexanoate] | 5 ± 1% | – | 12 ± 1%
CC(C)CC(=O)N[C@@H](Cc1c[nH]c2ccccc12)C(=O)N[C@@H](CCC(=O)C=[N+]=[N-])C(=O)OC(C)C [Compound 8b, Isopropyl (S)-2-((S)-3-(1H-indol-3-yl)-2-(3-methylbutanamido)propanamido)-6-diazo-5-oxohexanoate] | 1 ± 0% | – | 6 ± 1%
CC(C)OC(=O)[C@H](CCC(=O)C=[N+]=[N-])NC(=O)[C@H](Cc1c[nH]c2ccccc12)NC(=O)C(C)C [Compound 8c, Isopropyl (S)-2-((S)-3-(1H-indol-3-yl)-2-isobutyramidopropanamido)-6-diazo-5-oxohexanoate] | 13 ± 0% | – | 13 ± 7%
CC(C)OC(=O)[C@H](CCC(=O)C=[N+]=[N-])NC(=O)[C@H](Cc1c[nH]c2ccccc12)NC(=O)C(C)(C)C [Compound 8d, Isopropyl (S)-2-((S)-3-(1H-indol-3-yl)-2-pivalamidopropanamido)-6-diazo-5-oxohexanoate] | 2 ± 0% | – | 9 ± 1%
CC(C)OC(=O)[C@H](CCC(=O)C=[N+]=[N-])NC(=O)[C@H](Cc1c[nH]c2ccccc12)NC(=O)C1CC1 [Compound 8e, Isopropyl (S)-2-((S)-2-(cyclopropanecarboxamido)-3-(1H-indol-3-yl)propanamido)-6-diazo-5-oxohexanoate] | 7 ± 0% | – | 9 ± 0%
CC(C)OC(=O)[C@H](CCC(=O)C=[N+]=[N-])NC(=O)[C@H](Cc1c[nH]c2ccccc12)NC(=O)CN(C)C [Compound 8f, Isopropyl (S)-6-diazo-2-((S)-2-(2-(dimethylamino)acetamido)-3-(1H-indol-3-yl)propanamido)-5-oxohexanoate] | 2 ± 0% | – | 2 ± 0%
CCN(CC)CC(=O)N[C@@H](Cc1c[nH]c2ccccc12)C(=O)N[C@@H](CCC(=O)C=[N+]=[N-])C(=O)OC(C)C [Compound 8g, Isopropyl (S)-6-diazo-2-((S)-2-(2-(diethylamino)acetamido)-3-(1H-indol-3-yl)propanamido)-5-oxohexanoate] | 1 ± 0% | – | 1 ± 0%
CC(C)OC(=O)[C@H](CCC(=O)C=[N+]=[N-])NC(=O)[C@H](Cc1c[nH]c2ccccc12)NC(=O)CN1CCOCC1 [Compound 8i, Isopropyl (S)-2-((S)-3-(1H-indol-3-yl)-2-(2-morpholinoacetamido)propanamido)-6-diazo-5-oxohexanoate] | 0 ± 0% | – | 0 ± 0%
CC(C)OC(=O)[C@H](CCC(=O)C=[N+]=[N-])NC(=O)[C@H](Cc1c[nH]c2ccccc12)NC(=O)CN1CCN(C)CC1 [Compound 8j, Isopropyl (S)-2-((S)-3-(1H-indol-3-yl)-2-(2-(4-methylpiperazin-1-yl)acetamido)propanamido)-6-diazo-5-oxohexanoate] | 2 ± 0% | – | –
CC(C)OC(=O)[C@H](CCC(=O)C=[N+]=[N-])NC(=O)[C@H](Cc1c[nH]c2ccccc12)NC(=O)c1cccnc1 [Compound 8l, Isopropyl (S)-2-((S)-3-(1H-indol-3-yl)-2-(nicotinamido)propanamido)-6-diazo-5-oxohexanoate] | 0 ± 0% | – | 2 ± 0%
CC(C)OC(=O)[C@H](CCC(=O)C=[N+]=[N-])NC(=O)[C@H](Cc1c[nH]c2ccccc12)NC(=O)c1ccncc1 [Compound 8m, Isopropyl (S)-2-((S)-3-(1H-indol-3-yl)-2-(isonicotinamido)propanamido)-6-diazo-5-oxohexanoate] | 0 ± 0% | – | –
Cn1cc(C[C@H](NC(=O)C(Cl)Cl)C(=O)N[C@@H](CCC(=O)C=[N+]=[N-])C(=O)OC(C)(C)C)c2ccccc21 [Compound 12h, tert-Butyl (S)-6-diazo-2-((S)-2-(2,2-dichloroacetamido)-3-(1-methyl-1H-indol-3-yl)propanamido)-5-oxohexanoate] | 50 ± 3% | – | –

Results, then the compound that gave them:

Liver stability (% remaining at 60 min) [1] | Efflux [2] | Gut Stability (% remaining at 60 min) [3] | SMILES
88 ± 1% | – | 96 ± 0% | CC(=O)NCC(=O)N[C@@H](CCC(=O)C=[N+]=[N-])C(=O)OC(C)(C)C [Compound 14a, tert-Butyl (S)-2-(2-acetamidoacetamido)-6-diazo-5-oxohexanoate]
103 ± 3% | – | 96 ± 1% | CC(=O)N[C@@H](Cc1cccnc1)C(=O)N[C@@H](CCC(=O)C=[N+]=[N-])C(=O)OC(C)(C)C [Compound 17a, tert-Butyl (S)-2-((S)-2-acetamido-3-(pyridin-3-yl)propanamido)-6-diazo-5-oxohexanoate]
105 ± 2% | – | 93 ± 1% | CC(=O)N[C@@H](Cc1cncn1C)C(=O)N[C@@H](CCC(=O)C=[N+]=[N-])C(=O)OC(C)(C)C [Compound 18a, tert-Butyl (S)-2-((S)-2-acetamido-3-(1-methyl-1H-imidazol-5-yl)propanamido)-6-diazo-5-oxohexanoate]
100 ± 3% | – | 98 ± 2% | CN(C)CC(=O)N[C@@H](Cc1cncn1C)C(=O)N[C@@H](CCC(=O)C=[N+]=[N-])C(=O)OC(C)(C)C [Compound 18b, tert-Butyl (S)-6-diazo-2-((S)-2-(2-(dimethylamino)acetamido)-3-(1-methyl-1H-imidazol-5-yl)propanamido)-5-oxohexanoate]
75 ± 4% | 46.71 | – | CN(C)CC(=O)N[C@@H](Cc1cccc(F)c1)C(=O)N[C@@H](CCC(=O)C=[N+]=[N-])C(=O)OC(C)(C)C [Compound 21a, tert-Butyl (S)-6-diazo-2-((S)-2-(2-(dimethylamino)acetamido)-3-(3-fluorophenyl)propanamido)-5-oxohexanoate]
62 ± 1% | 52.07 | – | CN(C)CC(=O)N[C@@H](Cc1ccc(F)cc1)C(=O)N[C@@H](CCC(=O)C=[N+]=[N-])C(=O)OC(C)(C)C [Compound 22a, tert-Butyl (S)-6-diazo-2-((S)-2-(2-(dimethylamino)acetamido)-3-(4-fluorophenyl)propanamido)-5-oxohexanoate]
78 ± 1% | – | – | CN(C)CC(=O)N[C@@H](CC(C)(C)C)C(=O)N[C@@H](CCC(=O)C=[N+]=[N-])C(=O)OC(C)(C)C [Compound 24a, tert-Butyl (S)-6-diazo-2-((S)-2-(2-(dimethylamino)acetamido)-4,4-dimethylpentanamido)-5-oxohexanoate]
71 ± 0% | – | – | CN(C)[C@@H](Cc1ccccc1)C(=O)N[C@@H](CCC(=O)C=[N+]=[N-])C(=O)OC(C)(C)C [Compound 26a, tert-Butyl (S)-6-diazo-2-((S)-2-(dimethylamino)-3-phenylpropanamido)-5-oxohexanoate]
89 ± 4% | – | – | CN(C)CC(=O)NCC(=O)N[C@@H](CCC(=O)C=[N+]=[N-])C(N)=O [Compound 31c, (S)-6-Diazo-2-(2-(2-(dimethylamino)acetamido)acetamido)-5-oxohexanamide]
90 ± 1% | – | – | CC(C)C[C@H](NC(=O)CN(C)C)C(=O)N[C@@H](CCC(=O)C=[N+]=[N-])C(N)=O [Compound 31d, (S)-6-Diazo-2-((S)-2-(2-(dimethylamino)acetamido)-4-methylpentanamido)-5-oxohexanamide]
39 ± 0% | – | – | CN(C)CC(=O)N[C@@H](Cc1ccccc1)C(=O)N[C@@H](CCC(=O)C=[N+]=[N-])C(N)=O [Compound 31e, (S)-6-Diazo-2-((S)-2-(2-(dimethylamino)acetamido)-3-phenylpropanamido)-5-oxohexanamide]
49 ± 0% | – | 89 ± 2% | CN(C)CC(=O)N[C@@H](Cc1cn(C)c2ccccc12)C(=O)N[C@@H](CCC(=O)C=[N+]=[N-])C(N)=O [Compound 31f, (S)-6-Diazo-2-((S)-2-(2-(dimethylamino)acetamido)-3-(1-methyl-1H-indol-3-yl)propanamido)-5-oxohexanamide]
